Laboratory results published in the NIST ThermoML archive (doi:10.1016/j.tca.2005.10.007).
± gives the expanded uncertainty stated by the source.

Test: xn = mol fraction of the nth substance listed
Settings: 101 kPa, Liquid, Vibrating tube method

CC(O)CN (stereo not drawn) [1-amino-2-propanol] + O
mass density [kg/m3]
Settings | 318.15 K | 323.15 K | 328.15 K | 333.15 K | 338.15 K | 343.15 K | 348.15 K | 353.15 K
x2 = 0.0438 | – | 938.15 ± 0.46 | 934 ± 0.46 | 929.82 ± 0.46 | 925.59 ± 0.45 | 921.33 ± 0.45 | 917.02 ± 0.45 | 912.66 ± 0.45
x2 = 0.0801 | – | 939.79 ± 0.44 | 935.65 ± 0.44 | 931.47 ± 0.44 | 927.26 ± 0.44 | 923 ± 0.44 | 918.7 ± 0.44 | 914.34 ± 0.43
x2 = 0.1269 | – | 942.24 ± 0.42 | 938.11 ± 0.42 | 933.95 ± 0.42 | 929.74 ± 0.42 | 925.48 ± 0.42 | 921.19 ± 0.42 | 916.84 ± 0.41
x2 = 0.1584 | – | 943.75 ± 0.41 | 939.62 ± 0.41 | 935.46 ± 0.41 | 931.25 ± 0.4 | 927 ± 0.4 | 922.71 ± 0.4 | 918.36 ± 0.4
x2 = 0.2003 | – | 945.98 ± 0.39 | 941.87 ± 0.39 | 937.7 ± 0.39 | 933.51 ± 0.39 | 929.26 ± 0.39 | 924.97 ± 0.38 | 920.63 ± 0.38
x2 = 0.2999 | – | 951.92 ± 0.35 | 947.82 ± 0.34 | 943.67 ± 0.34 | 939.48 ± 0.34 | 935.23 ± 0.34 | 930.93 ± 0.34 | 926.59 ± 0.34
x2 = 0.3498 | – | 955.13 ± 0.32 | 951.03 ± 0.32 | 946.88 ± 0.32 | 942.69 ± 0.32 | 938.45 ± 0.32 | 934.15 ± 0.32 | 929.81 ± 0.32
x2 = 0.3999 | – | 958.3 ± 0.3 | 954.21 ± 0.3 | 950.06 ± 0.3 | 945.87 ± 0.3 | 941.62 ± 0.3 | 937.32 ± 0.3 | 932.97 ± 0.3
x2 = 0.4499 | – | 961.75 ± 0.28 | 957.65 ± 0.28 | 953.5 ± 0.28 | 949.31 ± 0.28 | 945.06 ± 0.28 | 940.76 ± 0.28 | 936.4 ± 0.27
x2 = 0.4968 | – | 965.17 ± 0.26 | 961.07 ± 0.26 | 956.92 ± 0.26 | 952.72 ± 0.26 | 948.47 ± 0.26 | 944.16 ± 0.26 | 939.8 ± 0.25
x2 = 0.5122 | 970.43 ± 0.25 | 966.38 ± 0.25 | 962.28 ± 0.25 | 958.13 ± 0.25 | 953.93 ± 0.25 | 949.68 ± 0.25 | 945.37 ± 0.25 | 941.01 ± 0.25
x2 = 0.5501 | 973.11 ± 0.23 | 969.05 ± 0.23 | 964.95 ± 0.23 | 960.8 ± 0.23 | 956.6 ± 0.23 | 952.34 ± 0.23 | 948.03 ± 0.23 | 943.66 ± 0.23
x2 = 0.6001 | 977.04 ± 0.21 | 972.99 ± 0.21 | 968.89 ± 0.21 | 964.74 ± 0.21 | 960.54 ± 0.21 | 956.29 ± 0.21 | 951.98 ± 0.21 | 947.61 ± 0.21
x2 = 0.6501 | 980.76 ± 0.19 | 976.72 ± 0.19 | 972.63 ± 0.19 | 968.49 ± 0.19 | 964.3 ± 0.19 | 960.06 ± 0.19 | 955.76 ± 0.19 | 951.4 ± 0.19
x2 = 0.7 | 984.34 ± 0.17 | 980.34 ± 0.17 | 976.28 ± 0.17 | 972.17 ± 0.17 | 968.01 ± 0.17 | 963.8 ± 0.17 | 959.53 ± 0.17 | 955.2 ± 0.17
x2 = 0.7501 | 987.6 ± 0.14 | 983.67 ± 0.14 | 979.68 ± 0.14 | 975.64 ± 0.14 | 971.55 ± 0.14 | 967.4 ± 0.14 | 963.19 ± 0.14 | 958.92 ± 0.15
x2 = 0.8 | 990.02 ± 0.12 | 986.23 ± 0.12 | 982.39 ± 0.12 | 978.48 ± 0.12 | 974.51 ± 0.12 | 970.48 ± 0.12 | 966.38 ± 0.12 | 962.22 ± 0.12
x2 = 0.84 | 991.29 ± 0.1 | 987.71 ± 0.1 | 984.06 ± 0.1 | 980.33 ± 0.1 | 976.53 ± 0.1 | 972.66 ± 0.1 | 968.72 ± 0.11 | 964.71 ± 0.1
x2 = 0.88 | 991.5 ± 0.08 | 988.22 ± 0.08 | 984.85 ± 0.08 | 981.39 ± 0.08 | 977.84 ± 0.08 | 974.2 ± 0.09 | 970.47 ± 0.09 | 966.66 ± 0.09
x2 = 0.92 | 990.94 ± 0.07 | 988.05 ± 0.07 | 985.04 ± 0.07 | 981.92 ± 0.07 | 978.68 ± 0.07 | 975.33 ± 0.07 | 971.88 ± 0.07 | 968.33 ± 0.08
x2 = 0.96 | 990.01 ± 0.05 | 987.53 ± 0.05 | 984.91 ± 0.05 | 982.14 ± 0.06 | 979.24 ± 0.06 | 976.22 ± 0.06 | 973.07 ± 0.06 | 969.81 ± 0.07
